Results published in US20180049996A1, “THERAPEUTIC AGENT FOR CHRONIC RESPIRATORY DISEASE AND COMPOSITION FOR INHIBITING CARDIAC FIBROSIS” (NIPPON HYPOX LABORATORIES INCORPORATED, priority 2015, published 2018).

Legend:
IL-5 = IL-5 level in BAL fluid (ELISA), ovalbumin asthma model; assay type: in vivo, BALB/c female mice; conditions: HTHQ 20 and 40 mg/kg/day oral; compared to OVA group
Description: 6 week old BALB/c female mice were purchased and the mice were divided into 5 groups with 5 animals per group shown in Table 3 below after habituation breeding of about 2 weeks.
The test was conducted on the schedule of sensitization, causing diseases and administration of test materials shown in FIG. 12. “IP” in FIG. 12 refers to ovalbumin sensitization treatment by the intraperitoneal administration of ovalbumin/aluminum hydroxide, and “IH” refers to inhalation exposure treatment of ovalbumin, and “PO” refers to the administration of the test materials. […]
All mice were euthanized by intraperitoneal injection of pentobarbital (Hanrimu pharmaceutical, South Korea) at 50 mg/kg and the bronchi were excised on day 25 of the test. […] After preparing slide samples from 100 μL of BAL cell fluid using Cytospin (4° C., 1000 rpm×5 min), the cell numbers of inflammatory cells (eosinophils, macrophages, lymphocytes and neutrophils) present in the BAL fluid were counted using a Diff-Quik stain kit.
The supernatant of the BAL fluid stored was taken out of the super-cryostat and IL-4, IL-5 and IL-13 levels were measured as the pro-inflammatory cytokine contents in the supernatant of the BAL fluid. A quantitative ELISA kit (a product from R&D systems) and a microplate reader (a product from Bio-Rad Laboratories, Inc.) were used for the measurement and the measurement wavelength was 450 nm.

[1] = system: Myocardial Disorder Induced by Doxorubicin; test: Histopathologic examination of the hearts (transmission electron microscope), myocardial disorder induced by doxorubicin; assay type: in vivo, female SD rats; conditions: Test group 2: doxorubicin + HTHQ 50 mg/kg; day 7
Description: Doxorubicin is used to produce disease-model animals of cardiomyopathy. The doxorubicin and 2,3,5-trimethylhydroquinone-1-hexyl ether (HTHQ) as the hydroquinone derivative represented by the general formula (1) described above of the present invention were simultaneously administered to female SD rats of 4 week old after birth to examine the effect of the action. The test groups consisted of the control group to which sterile saline was administered; test group 1 to which doxorubicin (13 mg/kg body weight) alone was administered; test group 2 to which doxorubicin (13 mg/kg body weight) and HTHQ (50 mg/kg body weight) were administered in combination; and test group 3 to which doxorubicin (13 mg/kg body weight), HTHQ (50 mg/kg body weight) and recombinant human erythropoietin (400 IU/kg body weight) were administered in combination. […] The test group 3 is used to confirm the presence or absence of the inhibitory effect brought about by combining HTHQ and rHuEPO on myocardial disorder.
Doxorubicin was orally administered in a single dose to the rats in test groups 1 to 3. 2,3,5-trimethylhydroquinone-1-hexyl ether (HTHQ) was orally administered to the rats in test groups 2 and 3 twice in total: 3 days before the administration of doxorubicin and on the day of the administration. […]

In the case of `CCCCCCOc1cc(C)c(O)c(C)c1C` [HTHQ, 2,3,5-trimethylhydroquinone-1-hexyl ether], the “IL-5 content in BAL fluid” value (IL-5) is reported as “significantly reduced” and the “findings in myocardial cells (transmission electron microscope)” value [1] is reported as “loss of striations was alleviated”.
